According to patent US12157730B2, “Heteroaryl derivative, method for producing same, and pharmaceutical composition comprising same as effective component” (VORONOI INC., priority 2019, dated 2024):

These molecules were tested against T1, Ba/F3 cell EGFR Exon20 ins NPH (Homo sapiens, UniProt P00533, INS773NPH) (assay: Ba/F3 cell proliferation suppression, EGFR Exon20 ins NPH). Details: GI50 class; Ba/F3 cell line with NPH inserted at Exon20 of EGFR; 72 hours.
T1 construct: expressed in transfected cells; host or cells: Ba/F3
Format: cell-based
Method in brief: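 Seed 3000–5000 cells/well; after 24 h add compound (12 conc., 0.3 nM–50 um final); incubate 72 h; add CellTiter-Glo, 10 min room temperature; read luminescence; GI50 from % growth vs control, triplicate.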

Ba/F3 (NPH) Activity	SMILES
A (GI50 < 50 nM)	C=CC(=O)Nc1cc(Nc2cc(N3OCC[C@@H]3c3cccc(C)c3F)ncn2)c(OC)cc1N1CC[C@@H](N(C)C)C1 [compound 860, N-(2-((R)-3-(dimethylamino)pyrolidine-1-yl)-5-((6-((R)-3-(2-fluoro-3-methylphenyl)isoxazolidine-2-yl)pyrimidine-4-yl)amino)-4-methoxyphenyl) acrylamide]
A (GI50 < 50 nM)	C=CC(=O)Nc1cc(Nc2cc(N3OCC[C@@H]3c3ccc(F)c(Cl)c3)ncn2)c(OC)cc1N1CCC(N2C[C@H](C)N(C3CC3)C[C@@H]2C)CC1 [Example 121, N-(5-((6-((R)-3-(3-chloro-4-fluorophenyl)isoxazolidine-2-yl)pyrimidine-4-yl)amino)-2-(4-((2S,5S)-4-cyclopropyl-2,5-dimethylpiperazine-1-yl)piperidine-1-yl)-4-methoxyphenyl) acrylamide]
A (GI50 < 50 nM)	C=CC(=O)Nc1cc(Nc2cc(N3OCC[C@@H]3c3c(F)ccc(F)c3Cl)ncn2)c(OC)cc1N1CCC(N2CCN(C3CC3)[C@@H](C)C2)CC1 [compound 934, N-(5-((6-((R)-3-(2-chloro-3,6-difluorophenyl)isoxazolidine-2-yl)pyrimidine-4-yl)amino)-2-(4-((S)-4-cyclopropyl-3-methylpiperazine-1-yl)piperidine-1-yl)-4-methoxyphenyl) acrylamide]
A (GI50 < 50 nM)	C=CC(=O)Nc1cc(Nc2cc(N3OCC[C@@H]3Cc3cccc(F)c3C)ncn2)c(OC)cc1N1CCC(N2C[C@@H]3C[C@H]2CO3)CC1 [compound 1040, N-(2-(4-((1S,4S)-2-oxa-5-azabicyclo [2.2.1]heptane-5-yl)piperidine-1-yl)-5-((6-((S)-3-(3-fluoro-2-methylbenzyl)isoxazolidine-2-yl)pyrimidine-4-yl)amino)-4-methoxyphenyl) acrylamide]
A (GI50 < 50 nM)	C=CC(=O)Nc1cc(Nc2cc(N3OCC[C@@H]3c3cc(F)cc(F)c3)ncn2)c(OC)cc1N1CCC(N2C[C@@H]3C[C@H]2CN3CC)CC1 [Example 264, N-(5-((6-((R)-3-(3,5-difluorophenyl)isoxazolidine-2-yl)pyrimidine-4-yl)amino)-2-(4-((1S,4S)-5-ethyl-2,5-diazabicyclo[2.2.1]heptane-2-yl)piperidine-1-yl)-4-methoxyphenyl) acrylamide]
C (500 nM ≤ GI50 < 5000 nM)	C=CC(=O)Nc1cc(Nc2cc(N3OCC[C@@H]3Cc3ccc(C(F)(F)F)cc3)ncn2)c(OC)cc1N1CCN(C2CC2)CC1 [compound 1049, N-(2-(4-cyclopropylpiperazine-1-yl)-4-methoxy-5-((6-((S)-3-(4-(trifluoromethyl)benzyl)isoxazolidine-2-yl)pyrimidine-4-yl)amino)phenyl) acrylamide]
A (GI50 < 50 nM)	C=CC(=O)Nc1cc(Nc2cc(N3OCC[C@@H]3c3cccc(OC)c3)ncn2)c(OC)cc1N1CCC(N2C[C@H]3C[C@@H]2CO3)CC1 [compound 726, N-(2-(4-((1R,4R)-2-oxa-5-azabicyclo [2.2.1]heptane-5-yl)piperidine-1-yl)-4-methoxy-5-((6-((R)-3-(3-methoxyphenyl)isoxazolidine-2-yl)pyrimidine-4-yl)amino)phenyl)acrylamide]
A (GI50 < 50 nM)	C=CC(=O)Nc1cc(Nc2cc(N3OCC[C@@H]3c3cccc(Cl)c3F)ncn2)c(OC)cc1N1CCC(N2C[C@H]3C[C@@H]2CO3)CC1 [Example 258, N-(2-(4-((1R,4R)-2-oxa-5-azabicyclo [2.2.1]heptane-5-yl)piperidine-1-yl)-5-((6-((R)-3-(3-chloro-2-fluorophenyl)isoxazolidine-2-yl)pyrimidine-4-yl)amino)-4-methoxyphenyl) acrylamide]
A (GI50 < 50 nM)	C=CC(=O)Nc1cc(Nc2cc(N3OCC[C@@H]3Cc3ccccc3)ncn2)c(OC)cc1N1CCN(C2CCN(C)CC2)CC1 [compound 970, N-(5-((6-((S)-3-benzylisoxazolidine-2-yl)pyrimidine-4-yl)amino)-4-methoxy-2-(4-(1-methylpiperidine-4-yl)piperazine-1-yl)phenyl)acrylamide]
A (GI50 < 50 nM)	C=CC(=O)Nc1cc(Nc2cc(N3OCC[C@@H]3c3ccc(F)cc3F)ncn2)c(OC)cc1N1CCC(N2CC[C@@H](N(C)C)C2)CC1 [compound 429, N-(5-((6-((R)-3-(2,4-difluorophenyl)isoxazolidine-2-yl)pyrimidine-4-yl)amino)-2-(4-((R)-3-(dimethylamino)pyrolidine-1-yl)piperidine-1-yl)-4-methoxyphenyl) acrylamide]
A (GI50 < 50 nM)	C=CC(=O)Nc1cc(Nc2cc(N3OCC[C@@H]3c3ccc(F)c(F)c3)ncn2)c(OC)cc1N(C)CCN(C)C [compound 457, N-(5-((6-((R)-3-(3,4-difluorophenyl)isoxazolidine-2-yl)pyrimidine-4-yl)amino)-2-((2-(dimethylamino)ethyl)(methyl)amino)-4-methoxyphenyl) acrylamide]
A (GI50 < 50 nM)	C=CC(=O)Nc1cc(Nc2cc(N3OCC[C@@H]3c3cccc(Cl)c3Cl)ncn2)c(OC)cc1N1CCN(C2CCCC2)CC1 [compound 563, N-(2-(4-cyclopentylpiperazine-1-yl)-5-((6-((R)-3-(2,3-dichlorophenyl)isoxazolidine-2-yl)pyrimidine-4-yl)amino)-4-methoxyphenyl) acrylamide]
A (GI50 < 50 nM)	C=CC(=O)Nc1cc(Nc2cc(N3OCC[C@@H]3c3ccc(F)c(F)c3)ncn2)c(OC)cc1N1CCN(C)CC1 [compound 458, N-(5-((6-((R)-3-(3,4-difluorophenyl)isoxazolidine-2-yl)pyrimidine-4-yl)amino)-4-methoxy-2-(4-methylpiperazine-1-yl)phenyl)acrylamide]
A (GI50 < 50 nM)	C=CC(=O)Nc1cc(Nc2cc(N3OCC[C@@H]3c3cccc(Cl)c3)ncn2)c(OC)cc1N1CCN(C(C)=O)CC1 [compound 464, N-(2-(4-acetylpiperazine-1-yl)-5-((6-((R)-3-(3-chlorophenyl)isoxazolidine-2-yl)pyrimidine-4-yl)amino)-4-methoxyphenyl) acrylamide]
A (GI50 < 50 nM)	C=CC(=O)Nc1cc(Nc2cc(N3OCC[C@@H]3c3cc(F)cc(Cl)c3)ncn2)c(OC)cc1N1CCC(N2CCOCC2)CC1 [compound 589, N-(5-((6-((R)-3-(3-chloro-5-fluorophenyl)isoxazolidine-2-yl)pyrimidine-4-yl)amino)-4-methoxy-2-(4-morpholinopiperidine-1-yl)phenyl)acrylamide]
A (GI50 < 50 nM)	C=CC(=O)Nc1cc(Nc2cc(N3OCC[C@@H]3c3cccc(F)c3)ncn2)c(OC)cc1N1CCN(C2CC2)CC1 [compound 830, N-(2-(4-cyclopropylpiperazine-1-yl)-5-((6-((R)-3-(3-fluorophenyl)isoxazolidine-2-yl)pyrimidine-4-yl)amino)-4-methoxyphenyl) acrylamide]
A (GI50 < 50 nM)	C=CC(=O)Nc1cc(Nc2cc(N3OCC[C@@H]3c3ccc(F)c(Cl)c3)ncn2)c(OC)cc1N1CCC(N2CCOCC2)CC1 [compound 720, N-(5-((6-((R)-3-(3-chloro-4-fluorophenyl)isoxazolidine-2-yl)pyrimidine-4-yl)amino)-4-methoxy-2-(4-morpholinopiperidine-1-yl)phenyl)acrylamide]
